Data taken from the supplement of paper PMC10627819.

Columns and labels:
Conditions in all cases: main component drawn
B. subtilis 168 = experiment: Bliss interaction score (quartile over a dose matrix) (fitness difference); higher = more antagonism (negative = synergy)
Outline: (§1)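 Each OD595 reading at entry into stationary phase was scaled to the robust mean of the untreated wells on its plate, with a ceiling of 1. These ratios define fitness, and single-drug fitness was inferred from combinations. The Bliss score compares observed fitness with the product-based expectation and is reported as quartiles across all replicate types, technical, biological and donor/recipient.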

S. aureus DSM 20231 [1] = experiment: as above
Outline: as §1

S. aureus Newman [2] = experiment: as above
Outline: as §1

S. pneumoniae D39V = experiment: as above
Outline: as §1

S. aureus DSM 20231 [3] = experiment: fitness (endpoint OD595 vs no drug) (fraction); higher = more growth
Outline: (§2)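 In 384-well plates at 37 °C, cultures began at OD595 0.01 in 30 µl, with 55 µl used for S. pneumoniae. OD595 readings every 30 min for 14 h were corrected by the first reading. Fitness divides the stationary-phase transition optical density by the robust mean of no-drug control wells. The result is capped at 1.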

S. aureus Newman [4] = experiment: as above
Outline: as §2
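Wherever Bliss interaction score (quartile over a dose matrix) is given: first quartile when negative (synergy) and third quartile when positive (antagonism).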
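Wherever fitness (endpoint OD595 vs no drug) is given: OD595 on entry to stationary phase over no-drug wells; at most 1.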

Cc1onc(-c2ccccc2)c1C(=O)N[C@@H]1C(=O)N2[C@@H]1SC(C)(C)[C@@H]2C(=O)O [Oxacillin] + CCCCCCCCCC(=O)N[C@@H]1[C@H]([C@@H]([C@H](O[C@H]1OC2=C3C=C4C=C2OC5=C(C=C(C=C5)[C@H]([C@H]6C(=O)N[C@@H](C7=C(C(=CC(=C7)O)OC8[C@H]([C@H]([C@@H]([C@H](O8)CO)O)O)O)C9=C(C=CC(=C9)[C@H](C(=O)N6)NC(=O)[C@@H]4NC(=O)[C@@H]1C2=CC(=CC(=C2)OC2=C(C=CC(=C2)[C@H](C(=O)N[C@H](CC2=CC(=C(O3)C=C2)Cl)C(=O)N1)N)O)O)O)C(=O)O)O[C@H]1[C@@H]([C@H]([C@@H]([C@H](O1)CO)O)O)NC(=O)C)Cl)CO)O)O [Teicoplanin]
Conditions | Bliss interaction score
B. subtilis 168 | -0.0735
S. aureus DSM 20231 [1] | 0.062
S. aureus Newman [2] | -0.0741
S. pneumoniae D39V | -0.0582

fitness
Conditions | first compound 0.0156 µg/mL | first compound 0.0312 µg/mL | first compound 0.0625 µg/mL
S. aureus DSM 20231 [3], partner 0.1562 µg/mL | 0.833 | 0.743 | 0.492
S. aureus DSM 20231 [3], partner 0.3125 µg/mL | 0.877 | 0.811 | 0.485
S. aureus DSM 20231 [3], partner 0.625 µg/mL | 0.813 | 0.693 | 0.541
S. aureus Newman [4], partner 0.1562 µg/mL | 0.746 | 0.702 | 0.595
S. aureus Newman [4], partner 0.3125 µg/mL | 0.732 | 0.708 | 0.596
S. aureus Newman [4], partner 0.625 µg/mL | 0.721 | 0.65 | –

fitness, S. aureus Newman [4], one replicate
Conditions | first compound 0.0156 µg/mL | first compound 0.0312 µg/mL | first compound 0.0625 µg/mL
partner 0.62 µg/mL | 0.603 | 0.638 | 0.534
partner 1.24 µg/mL | 0.668 | 0.596 | 0.351
partner 2.48 µg/mL | 0.429 | 0.16 | 0.143

C[n+]1ccc(-c2cc[n+](C)cc2)cc1 [Paraquat] + CCCCCCCCCC(=O)N[C@@H]1[C@H]([C@@H]([C@H](O[C@H]1OC2=C3C=C4C=C2OC5=C(C=C(C=C5)[C@H]([C@H]6C(=O)N[C@@H](C7=C(C(=CC(=C7)O)OC8[C@H]([C@H]([C@@H]([C@H](O8)CO)O)O)O)C9=C(C=CC(=C9)[C@H](C(=O)N6)NC(=O)[C@@H]4NC(=O)[C@@H]1C2=CC(=CC(=C2)OC2=C(C=CC(=C2)[C@H](C(=O)N[C@H](CC2=CC(=C(O3)C=C2)Cl)C(=O)N1)N)O)O)O)C(=O)O)O[C@H]1[C@@H]([C@H]([C@@H]([C@H](O1)CO)O)O)NC(=O)C)Cl)CO)O)O [Teicoplanin]
Conditions | Bliss interaction score
B. subtilis 168 | -0.044
S. aureus DSM 20231 [1] | 0.0665
S. aureus Newman [2] | 0.0904
S. pneumoniae D39V | 0.0634

fitness
Conditions | first compound 1.25 µg/mL | first compound 2.5 µg/mL | first compound 5 µg/mL
S. aureus DSM 20231 [3], partner 0.1562 µg/mL | 0.957 | 0.954 | 0.967
S. aureus DSM 20231 [3], partner 0.3125 µg/mL | 0.99 | ≥ 1 | ≥ 1
S. aureus DSM 20231 [3], partner 0.625 µg/mL | ≥ 1 | ≥ 1 | ≥ 1
S. aureus Newman [4], partner 0.1562 µg/mL | ≥ 1 | ≥ 1 | ≥ 1
S. aureus Newman [4], partner 0.3125 µg/mL | ≥ 1 | 0.98 | 0.962
S. aureus Newman [4], partner 0.625 µg/mL | 0.912 | 0.87 | 0.846

fitness, S. aureus Newman [4], one replicate
Conditions | first compound 1.25 µg/mL | first compound 2.5 µg/mL | first compound 5 µg/mL
partner 0.62 µg/mL | 0.795 | 0.782 | 0.775
partner 1.24 µg/mL | 0.737 | 0.745 | 0.761
partner 2.48 µg/mL | 0.336 | 0.402 | 0.117

Cn1c2cccc(=O)c-2nc2ccccc21 [Pyocyanin] + CCCCCCCCCC(=O)N[C@@H]1[C@H]([C@@H]([C@H](O[C@H]1OC2=C3C=C4C=C2OC5=C(C=C(C=C5)[C@H]([C@H]6C(=O)N[C@@H](C7=C(C(=CC(=C7)O)OC8[C@H]([C@H]([C@@H]([C@H](O8)CO)O)O)O)C9=C(C=CC(=C9)[C@H](C(=O)N6)NC(=O)[C@@H]4NC(=O)[C@@H]1C2=CC(=CC(=C2)OC2=C(C=CC(=C2)[C@H](C(=O)N[C@H](CC2=CC(=C(O3)C=C2)Cl)C(=O)N1)N)O)O)O)C(=O)O)O[C@H]1[C@@H]([C@H]([C@@H]([C@H](O1)CO)O)O)NC(=O)C)Cl)CO)O)O [Teicoplanin]
Conditions | Bliss interaction score
B. subtilis 168 | -0.0698
S. aureus DSM 20231 [1] | 0.0554
S. aureus Newman [2] | -0.114
S. pneumoniae D39V | 0.0954

fitness
Conditions | first compound 1.25 µg/mL | first compound 2.5 µg/mL | first compound 5 µg/mL
S. aureus DSM 20231 [3], partner 0.1562 µg/mL | 0.99 | 0.906 | 0.619
S. aureus DSM 20231 [3], partner 0.3125 µg/mL | ≥ 1 | 0.962 | 0.647
S. aureus DSM 20231 [3], partner 0.625 µg/mL | ≥ 1 | ≥ 1 | 0.691
S. aureus Newman [4], partner 0.1562 µg/mL | 0.958 | 0.805 | 0.372
S. aureus Newman [4], partner 0.3125 µg/mL | 0.891 | 0.769 | 0.35
S. aureus Newman [4], partner 0.625 µg/mL | 0.708 | 0.54 | 0.247

fitness, S. aureus Newman [4], one replicate
Conditions | first compound 1.25 µg/mL | first compound 2.5 µg/mL | first compound 5 µg/mL
partner 0.62 µg/mL | 0.72 | 0.696 | 0.473
partner 1.24 µg/mL | 0.698 | 0.558 | 0.238
partner 2.48 µg/mL | 0.328 | 0.14 | 0.072
